From ChEMBL document CHEMBL2384945, “Discovery of RG7112: A Small-Molecule MDM2 Inhibitor in Clinical Development” (ACS Med Chem Lett, 2013) come the findings set out here.

Data set [1] deals with SJSA-1. In words: cells. The conditions noted are these: Homo sapiens, SJSA-1, 120 h.
Description: Cytotoxicity against human SJSA1 cells expressing wild type p53 assessed as cell viability after 5 days by MTT assay
A further data set relates to HCT-116. In words: cells. Particulars: Homo sapiens, HCT-116, 120 h.
The test system of a further data set is RKO. As to the kind of experiment: cells. Particulars: Homo sapiens, 120 h.
A further data set relates to SW480. As to the kind of experiment: cells. Particulars: Homo sapiens, SW480, 120 h.
Another data set has as its system MDA-MB-435. In words: cells. The conditions noted are these: Homo sapiens, MDA-MB-435, 120 h.
Data set [2] is described as follows: AUClast in mouse at 50 mg/kg, po. Type of data set: ADME, organism-based. Set-up: time 0 - last, dose 50 mg/kg, route oral. The conditions noted are these: plasma.
Data set [3] is described as follows: Apparent half life in mouse at 50 mg/kg, po. It is filed as ADME, organism-based. Set-up: dose 50 mg/kg, route oral. The conditions noted are these: in vivo, read-out: t1/2(app) (converted).
Data set [4] in a line: Cmax in mouse at 50 mg/kg, po. Set-up: dose 50 mg/kg, route oral. The conditions noted are these: in vivo. It is filed as ADME, organism-based.
The nature of data set [5]: AUClast in mouse at 100 mg/kg, po. It is filed as ADME, organism-based. Set-up: time 0 - last, dose 100 mg/kg, route oral. Particulars: plasma.
The nature of data set [6]: Apparent half life in mouse at 100 mg/kg, po. Set-up: dose 100 mg/kg, route oral. Particulars: in vivo, read-out: t1/2(app) (converted). Type of data set: ADME, organism-based.
Data set [7] is described as follows: Cmax in mouse at 100 mg/kg, po. It is filed as ADME, organism-based. Set-up: dose 100 mg/kg, route oral. The conditions noted are these: in vivo.
Data set [8] is described as follows: Antitumor activity against human MHM cells xenografted in po dosed mouse relative to nutlin-3a. Type of data set: functional.
Data set [9] concerns SJSA-1. In words: animal or person. Particulars: Mus musculus, SJSA-1, po, read-out: TGI.
Description: Antitumor activity against human SJSA1 cells xenografted in nude mouse assessed as tumor growth inhibition at 50 mg/kg, po relative to control

Description for HCT-116: Cytotoxicity against human HCT116 cells expressing wild type p53 assessed as cell viability after 5 days by MTT assay
Description for MDA-MB-435: Cytotoxicity against human MDA-MB-435 cells expressing p53 mutant assessed as cell viability after 5 days by MTT assay
Description for RKO: Cytotoxicity against human RKO cells expressing wild type p53 assessed as cell viability after 5 days by MTT assay
Description for SW480: Cytotoxicity against human SW480 cells expressing p53 mutant assessed as cell viability after 5 days by MTT assay

The IC50 is the point on the concentration scale where inhibition reaches its midpoint. A higher IC50 goes with weaker potency in that assay. Consider `CCOc1cc(C(C)(C)C)ccc1C1=N[C@@](C)(c2ccc(Cl)cc2)[C@@H](c2ccc(Cl)cc2)N1C(=O)N1CCN(CCCS(C)(=O)=O)CC1`, for which the IC50 in the data set on SJSA-1 [1] is 12.4 µM; in the data set with HCT-116, 14.4 µM; in the data set on RKO, more than 30 µM; with SW480, more than 30 µM; in the data set with MDA-MB-435 it was more than 30 µM.
On to `CCOc1cc(C(C)(C)C)ccc1C1=N[C@@](C)(c2ccc(Cl)cc2)[C@@](C)(c2ccc(Cl)cc2)N1C(=O)N1CCNC(=O)C1`, for which the IC50 was 7.6 µM in the data set with SJSA-1 [1]; 16.4 µM in the data set on HCT-116; 23.7 µM in the data set on RKO; more than 30 µM in the data set with SW480; more than 30 µM in the data set with MDA-MB-435.
For `CCOc1cc(C(C)(C)C)ccc1C1=N[C@@](C)(c2ccc(Cl)cc2)[C@@](C)(c2ccc(Cl)cc2)N1C(=O)N1CCNCC1`, the IC50 in the data set with SJSA-1 [1] came out at 0.6 µM; with HCT-116, 1.2 µM; in the data set on RKO it was 0.5 µM; in the data set on SW480, 2.7 µM; in the data set on MDA-MB-435 it was 4.2 µM.
As to `CCOc1cc(C(C)(C)C)ccc1C1=N[C@@](C)(c2ccc(Cl)cc2)[C@@](C)(c2ccc(Cl)cc2)N1C(=O)N1CCCCC1`, the IC50 with SJSA-1 [1] came to 7.3 µM; in the data set on HCT-116 it was 10.7 µM; with RKO it was 6.8 µM; in the data set with SW480, 23.1 µM; in the data set with MDA-MB-435 it was 24.9 µM.
Broadly, the AUC(0-t) is the area under the concentration-time curve up to a stated or last time point. A low value points to low exposure. Broadly, the Cmax is the maximum level reached in the sampled fluid or tissue. On to `CCOc1cc(C(C)(C)C)ccc1C1=N[C@@](C)(c2ccc(Cl)cc2)[C@@](C)(c2ccc(Cl)cc2)N1C(=O)N1CCN(C(C)=O)CC1`, for which the IC50 was determined as 0.3 µM in the data set with SJSA-1 [1]; 0.6 µM in the data set with HCT-116; 0.5 µM in the data set with RKO; 17.8 µM in the data set on SW480; 14.9 µM in the data set on MDA-MB-435. In [2], this molecule displayed an AUC(0-t) of 64900 ng·h/mL. For the same molecule, the half-life in [3] was 2.4 h. The Cmax in data set [4] turned out to be 19600 ng/mL.
For `CCOc1cc(C(C)(C)C)ccc1C1=N[C@@](C)(c2ccc(Cl)cc2)[C@@](C)(c2ccc(Cl)cc2)N1C(=O)N1CCN(CCC(F)(F)F)CC1`, the IC50 in the data set with SJSA-1 [1] was found to be 2.5 µM; in the data set with HCT-116 it was 1.3 µM; with RKO it was 0.4 µM; with SW480, 5 µM; with MDA-MB-435, 29.3 µM.
Turning to `CCOc1cc(C(C)(C)C)ccc1C1=N[C@@](C)(c2ccc(Cl)cc2)[C@@](C)(c2ccc(Cl)cc2)N1C(=O)N1CCN(CCO)CC1`, the IC50 in the data set on SJSA-1 [1] came to 0.2 µM; with HCT-116, 0.8 µM; in the data set on RKO it was 0.3 µM; with SW480, 12.3 µM; in the data set on MDA-MB-435, 9.6 µM.
For `CCOc1cc(C(C)(C)C)ccc1C1=N[C@@](C)(c2ccc(Cl)cc2)[C@@](C)(c2ccc(Cl)cc2)N1C(=O)N1CCN(CCNS(C)(=O)=O)CC1` the same measures were 0.2 µM, 0.9 µM, 0.3 µM, 9.1 µM and 7.3 µM.
With `CCOc1cc(C(C)(C)C)ccc1C1=N[C@@](C)(c2ccc(Cl)cc2)[C@@](C)(c2ccc(Cl)cc2)N1C(=O)N1CCN(CCNC(C)=O)CC1`, the IC50 was 0.1 µM with SJSA-1 [1]; 0.5 µM in the data set with HCT-116; 0.3 µM in the data set with RKO; 11 µM with SW480; 10.5 µM in the data set on MDA-MB-435. Besides, in data set [2], the AUC(0-t) amounted to 136000 ng·h/mL. In addition, the half-life in [3] was 2.3 h. This molecule had a Cmax in data set [4] of 12000 ng/mL.
For the molecule `CCOc1cc(C(C)(C)C)ccc1C1=N[C@@](C)(c2ccc(Cl)cc2)[C@@](C)(c2ccc(Cl)cc2)N1C(=O)N1CCN(CC(=O)N2CCCC2)CC1`, the IC50 was determined as 0.3 µM in the data set with SJSA-1 [1]; 0.7 µM in the data set with HCT-116; 0.5 µM with RKO; 14.4 µM in the data set on SW480; 9.5 µM in the data set on MDA-MB-435. In data set [2], this molecule registered an AUC(0-t) of 8300 ng·h/mL. Moreover, in [3], the half-life was 4.7 h. This molecule also gave a Cmax in data set [4] of 2300 ng/mL.
On to `CCOc1cc(C(C)(C)C)ccc1C1=N[C@@](C)(c2ccc(Cl)cc2)[C@@](C)(c2ccc(Cl)cc2)N1C(=O)N1CCN(CC(=O)N2CCOCC2)CC1`, for which the 50% inhibitory concentration (IC50) with SJSA-1 [1] amounted to 0.2 µM; in the data set on HCT-116 it was 0.6 µM; in the data set with RKO it was 0.6 µM; with SW480 it was 14.4 µM; in the data set on MDA-MB-435 it was 17.5 µM.
For the molecule `CCOc1cc(C(C)(C)C)ccc1C1=N[C@@](CC)(c2ccc(Cl)cc2)[C@@](CC)(c2ccc(Cl)cc2)N1C(=O)N1CCN(CCCS(C)(=O)=O)CC1`, the IC50 with SJSA-1 [1] is more than 30 µM; in the data set on HCT-116, 13.7 µM; in the data set with RKO it was 12.5 µM; in the data set with SW480, 24.6 µM; in the data set on MDA-MB-435, 28.2 µM.
On to `COc1ccc(C2=N[C@@H](c3ccc(Cl)cc3)[C@@H](c3ccc(Cl)cc3)N2C(=O)N2CCNC(=O)C2)c(OC(C)C)c1` [NUTLIN-3], for which the IC50 in the data set with SJSA-1 [1], in the data set on HCT-116 and with RKO was 1.5 µM throughout. In data set [5], this molecule registered an AUC(0-t) of 65000 ng·h/mL. Also, the half-life in data set [6] was 2.6 h. Moreover, the Cmax in data set [7] came to 12100 ng/mL.
For `CCOc1cc(C(C)(C)C)ccc1C1=N[C@@](C)(c2ccc(Cl)cc2)[C@@](C)(c2ccc(Cl)cc2)N1C(=O)N1CCN(CCCS(C)(=O)=O)CC1` [RO-5045337], the IC50 in the data set with SJSA-1 [1] was 0.3 µM; in the data set on HCT-116 it was 0.5 µM; in the data set with RKO, 0.4 µM; with SW480 it was 16.6 µM; in the data set with MDA-MB-435, 9.9 µM. Further, the AUC(0-t) in data set [2] worked out at 251000 ng·h/mL. Moreover, in data set [8], the “fold change (FC)” value is 4. Moreover, the half-life in data set [3] was 8.8 h. This molecule returned a Cmax in data set [4] of 15500 ng/mL. Also, the inhibition in vivo at 50 mg/kg in the data set on SJSA-1 [9] amounted to 74%.
